Broadly, the Ki is a measure of affinity in units of concentration, obtained from inhibition or displacement.

Each structure is given as a SMILES string.

The target in the assay is T1, human mineralocorticoid receptor protein (MR) (Homo sapiens, UniProt P08235).
T1 construct: made in house; host or cells: Spodoptera frugiperda Sf21 insect cells (baculovirus)
T1 sequence (P08235 1-984): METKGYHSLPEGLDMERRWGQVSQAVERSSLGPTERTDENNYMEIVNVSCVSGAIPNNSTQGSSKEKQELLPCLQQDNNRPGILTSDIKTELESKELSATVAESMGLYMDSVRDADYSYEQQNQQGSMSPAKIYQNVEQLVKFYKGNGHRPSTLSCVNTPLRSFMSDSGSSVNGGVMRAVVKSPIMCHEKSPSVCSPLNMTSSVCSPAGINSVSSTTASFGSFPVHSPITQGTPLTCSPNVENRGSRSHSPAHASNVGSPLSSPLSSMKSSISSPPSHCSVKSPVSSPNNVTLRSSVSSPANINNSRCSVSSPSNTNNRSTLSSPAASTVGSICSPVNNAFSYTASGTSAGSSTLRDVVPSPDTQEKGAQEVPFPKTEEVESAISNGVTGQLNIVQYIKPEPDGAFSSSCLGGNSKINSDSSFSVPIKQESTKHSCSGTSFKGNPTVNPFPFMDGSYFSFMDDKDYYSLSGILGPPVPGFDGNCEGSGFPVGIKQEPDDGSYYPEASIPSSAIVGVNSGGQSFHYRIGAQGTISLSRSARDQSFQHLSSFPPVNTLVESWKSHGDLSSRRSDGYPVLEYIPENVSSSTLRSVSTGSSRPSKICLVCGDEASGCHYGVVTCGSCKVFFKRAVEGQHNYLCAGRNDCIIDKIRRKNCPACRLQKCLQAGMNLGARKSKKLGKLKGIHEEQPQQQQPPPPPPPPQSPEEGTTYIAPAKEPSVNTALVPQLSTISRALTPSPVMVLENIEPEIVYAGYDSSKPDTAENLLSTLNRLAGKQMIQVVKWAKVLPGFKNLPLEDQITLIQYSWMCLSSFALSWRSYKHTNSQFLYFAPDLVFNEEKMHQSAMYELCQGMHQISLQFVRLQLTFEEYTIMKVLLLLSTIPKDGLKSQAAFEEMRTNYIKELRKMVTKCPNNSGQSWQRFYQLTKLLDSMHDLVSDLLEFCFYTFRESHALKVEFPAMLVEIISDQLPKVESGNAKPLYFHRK
Put plainly: Mineralocorticoid receptor binding assay ([3H]aldosterone competition, MR lysate). Particulars: baculovirus-expressed MR lysate from Sf21 cells; 2-4 nM [3H]aldosterone; 16 hours at 4° C.; Cheng-Prusoff from IC50. The method, then: A baculovirus expression plasmid comprising cDNA encoding the human mineralocorticoid receptor protein (MR) was prepared using standard techniques. See e.g. E. A. Allegretto et. al. 268 J. Biol. Chem., 26625 (1993); G. Srinivasan and B. Thompson, 4 Mol. Endo., 209 (1990); and D. R. O'Reilly et. al., in “Baculovirus Expression Vectors”, D. R. O'Reilly et. al., eds., W. H. Freeman, New York, N.Y., pp. 139-179 (1992). That expression plasmid was co-transfected together with wild type Autographa californica multiple nuclear polyhedrosis virus DNA into Spodoptera frugiperda-21 (Sf-21) cells to generate recombinant virus comprising MR cDNA. See e.g. O'Reilly, D. R., Miller, L. K., Luckow, V. A., Regulation of expression of a baculovirus ecdysteroid UDP glucosyltransferase gene. “Baculovirus Expression Vectors.” WH Freeman, NY, 139-179 (1992). That recombinant virus comprising MR cDNA was collected.
A suspension culture of uninfected Sf21 cells was grown to a density of 1.2×10^6 cells/ml and then infected with the recombinant virus comprising MR cDNA at a multiplicity of infection of 2. Those infected Sf21 cells were incubated for 48 hours and then collected by centrifugation at 1000×g for 10 minutes at 4° C. The resulting cell pellets were resuspended in lysis buffer (50 mM Potassium Phosphate buffer, pH 7.0, 10 mM Monothioglycerol, 5 mM DTT, 20 mM Sodium Molybdate, 1 mM PMSF, 1 μg/mL aprotinin, and 10 μg/mL leupeptin) and incubated for 15 minutes on ice. Those resuspended cell pellets were homogenized using a Dounce homogenizer and a B pestle. A volume of 2 M KCl was added to the homogenized cell pellets to a final concentration of 0.4 M. The resulting MR lysates were centrifuged at 100,000×g for 60 min at 4° C. and stored for use in binding assays.
Binding assay samples were prepared in separate mini-tubes in a 96-well format at 4° C. Each binding assay sample was prepared in a volume of 250 μl of MR-Assay Buffer (10% glycerol, 10 mM sodium phosphate, 10 mM potassium fluoride, 20 mM sodium molybdate, 0.25 mM CHAPS, 2 mM DTT, (adjusted to pH 7.35)) containing 5-10 μg of MR lysate; 2-4 nM of [^3H]aldosterone; unlabeled aldosterone; and a test compound. Each test compound was assayed at several different concentrations, ranging from 0 to 10^−5 M and each was tested in the presence and in the absence of several different concentrations of unlabeled aldosterone. Each concentration of each test compound was assayed in triplicate. The assay samples were incubated for 16 hours at 4° C.
After incubation, 200 μl of 6.25% hydroxylapatite in assay buffer was added to each assay sample to precipitate the protein. The assay samples were then centrifuged and the supernatants were discarded. The resulting pellets were washed twice with assay buffer lacking DTT. Radioactivity in counts per minute (CPM) of each washed pellet was determined by liquid scintillation counter (MicroBeta™, Wallach).
Specific binding for a particular sample was calculated using the equation: (Sample CPM)−(Average Non-specific CPM) Average Non-specific CPM was defined as the amount of radioactivity from samples comprising an excess (i.e. 1000 nM) of unlabeled aldosterone. IC50 values (the concentration of test compound required to decrease specific binding by 50%) were determined using the log-logit (Hill) method. Ki values were determined using the Cheng-Prusoff equation using a previously determined Kd value for aldosterone: Ki=IC50/(1+[L]/Kd) [L]=concentration of labeled aldosterone Kd=dissociation constant of labeled aldosterone Ki values for certain mineralocorticoid receptor binding compounds are shown in Table 1.
In turn, `CC1(C)OC(=O)Nc2ccc(-c3cccc(C#N)c3)c(Cl)c21` [Compound 101, 5-Chloro-6-(3-cyanophenyl)-1,4-dihydro-4,4-dimethyl-2H-3,1-benzoxazin-2-one] yielded a Ki of 98 nM. The compound `CC1(C)OC(=S)Nc2ccc(-c3cccc(C(F)(F)F)c3)c(Cl)c21` [Compound 104, 5-Chloro-1,4-dihydro-4,4-dimethyl-6-[3-(trifluoromethyl)phenyl]-2H-3,1-benzoxazin-2-thione] came in with an inhibitory constant (Ki) of 52 nM. `CC(=O)c1cccc(-c2ccc3c(c2Cl)C(C)(C)OC(=O)N3)c1` [Compound 103, 6-(3-Acetylphenyl)-5-chloro-1,4-dihydro-4,4-dimethyl-2H-3,1-benzoxazin-2-one] registered an inhibitory constant (Ki) of 375 nM. Compared with the last compound, the Ki is about 7.2-fold higher. For `CC1OC(=S)Nc2ccc(-c3cccc(C(F)(F)F)c3)c(Cl)c21` (racemic) [Compound 111, (±)-5-Chloro-1,4-dihydro-4-methyl-6-[3-(trifluoromethyl)phenyl]-2H-3,1-benzoxazin-2-thione], the inhibitory constant (Ki) was found to be 45 nM. Compared with the last compound, the Ki is about 8.3-fold lower. The compound `O=C1Nc2ccc(-c3cccc(C(F)(F)F)c3)c(Cl)c2C(c2ccc(F)cc2)O1` (racemic) [Compound 118, (±)-5-Chloro-4-(4-fluorophenyl)-1,4-dihydro-6-[3-(trifluoromethyl)phenyl]-2H-3,1-benzoxazin-2-one] displayed a Ki of 150 nM. This Ki lies about 3.3-fold higher than the previous one. For `CC1(C)OC(=O)Nc2ccc(-c3cccc(C(F)(F)F)c3)c(Cl)c21` [Compound 102, 5-Chloro-1,4-dihydro-4,4-dimethyl-6-[3-(trifluoromethyl)phenyl]-2H-3,1-benzoxazin-2-one], the affinity corresponds to a Ki of 440 nM.

Values taken from US7442696B2, “Mineralocorticoid receptor modulator compounds, processes for their preparation, and their uses” (Ligand Pharmaceuticals, Inc., priority 2004, dated 2008).
